Experimental findings from patent publication EP4177246A1, “FUSED OXAZEPINES AS INHIBITORS OF PEROXIREDOXINS” (Centro Atlántico del Medicamento, SA, priority 2021, dated 2023) are described below.

The subject of one test is K562. The experiment in a line: MTT cell viability assay, K562 cells. The class given is cell-based. The note with it: Homo sapiens, 48 h drug exposure. A digest of the protocol: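 Human CML-derived K562 cells seeded at 1000-5000/well with 10% FBS, treated after 24 h with compound (10 to 0,01 µM) or 0.05% DMSO vehicle for 48 h. MTT (0.3 mg/ml) added 2-4 h at 37 °C, formazan dissolved in DMSO, OD 595 nm; IC50 from non-linear regression, 3 replicates.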
In general terms: Tetrazolium dyes change colour on reduction, which living cells bring about.

A further test concerns DU-145. The experiment in a line: MTT cell viability assay, DU-145 cells. The format is cell-based. The note with it: Homo sapiens, 48 h drug exposure. The procedure:
DU-145 [American Type Culture Collection (ATCC) reference number HTB-81]. This a human prostate cancer cell line derived from a metastatic site (brain) of a person.
Cell viability was assayed by measuring the mitochondrial reduction of the tetrazolium salt 3-(4,5-methyltiazol-2yl)-2,5diphenyl-tetrazolium bromide] (MTT) (Applichen; A2231,0010) [Mosmann T. J Immunol Methods. 1983 16;65(1-2):55-63 (ref. 36); Chuan Y-C et al 2010. Oncogene. 29 (10), 1531-1542 (ref. 37)]. Cells were seeded in 96-well plates in medium (either RPMI, DMEM or McCoys depending on the recommendations from the ATCC) supplemented with 10% FBS (Lonza Cat. N°: 14-502F), 2mM L-Glut (Lonza Cat. N°: BE17-605E) and 100U/ml PEST (Lonza Cat. N°: DE17-605E) at a cell density of 1000-5000 cells/well (96 well plate). Cells were seeded at a density according to their exponential growth phase (normally 1000 to 5000/well). The cells were cultured at 37 °C in the dark in air containing 5% CO2. After 24h either vehicle (0.05% DMSO) or drug were added to culture medium at the indicated concentrations (10 to 0,01microM). After another 48 h, MTT (0.3 mg/ml) was added to cells, followed by incubation for 2-4h at 37 °C in the dark. The medium was then removed and the precipitated formazan was solubilized by the addition of DMSO (200 µL).
The optical density was measured at 595 nm with the iMark Microplate Reader (BioRad, USA). Data was expressed as percent growth above the level in controls and the results in figures were plotted as means ± SEM of each test point from 3 replicates.
Statistical analysis. The concentration of drug that provokes 50% reduction of cell viability (IC50) was determined by using non-linear regression analysis and data were fitted to a log concentration vs normalized response curve in GraphPad software v5 (San Diego, CA).

The subject of another test is PRDX1 and/or PRDX2. The experiment in a line: Resin-bound affinity chromatography with competition/elution by free compound (type of binding). On the set-up: species or system human. The conditions noted are these: MDA-MB-231 cell lysates; pre-incubation 1.5 hours with 50 micrograms of free compound; SDS-PAGE, silver staining. The procedure: The immobilization of compound (24) and the identification of its targets was accomplished using a previously described method [Orive-Ramos A, Seoane S, Ocaña A, Pandiella A, Montero JC. Regulation of the prometastatic neuregulin-MMP13 axis by SRC family kinases: therapeutic implications. Mol Oncol. 2017 Dec; 11(12): 1788-1805] (ref. 32). Briefly, 5 mg of the compound was dissolved in a coupling solution (50% dimethylformamide, 50% 0.1 M Na2CO3), and incubated with 0.5 mg of epoxy-activated sepharose 6B (GE Healthcare Life Sciences; Piscataway, NJ, USA), obtaining a CM728-coupled resin. A control resin was prepared without the compound (uncoupled). Both resins were incubated with 25 mg of cell extracts from MDA-MB-231 and BT-549 cancer cells.
The resulting complexes were retrieved by centrifugation, washed with lysis buffer, re-suspended and boiled in loading buffer and resolved in SDS-PAGE. The gel was silver stained and the bands of interest were excised, digested by trypsin (Figure 1). […]
In another experiment the resins collected after being incubated with cell lysates (analyzed in lanes 1 and 2) were further treated with free compound 24 to elute non-covalent compound 24 specific, binding proteins. […]

A further test has as its system MDA-MB-231. Nature of the test: MTT cell viability assay, MDA-MB-231 cells. The class given is cell-based, human. The conditions noted are these: Homo sapiens, 48 h drug exposure. Summed up: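 MDA-MB-231 cells seeded in FBS-supplemented medium, treated after 24 h with compound (10 to 0,01 µM; vehicle 0.05% DMSO) for 48 h at 37 °C. MTT (0.3 mg/ml) added for 2-4 h, formazan dissolved in DMSO, OD read at 595 nm. IC50 from non-linear regression of log concentration vs normalized response.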

The IC50 is the concentration needed to halve the response being measured. The low end stands for greater potency, the high end for weaker potency. As to `O=C1C2=C(C(=O)c3c(O)ccc(O)c31)N(c1cccnc1)Cc1ccccc1O2` [Compound 24, 7,10-dihydroxy-12-(pyridin-3-yl)-12,13-dihydrobenzo[f]naphtho[2,3-b][1,4]oxazepine-6,11-dione], the IC50 with K562 stood at 0.1 µM; in the test on DU-145, 3.19 µM; in the test with MDA-MB-231, 0.09 µM. The “manner in which compound binds to PRDX1 and/or PRDX2” value with PRDX1 and/or PRDX2 is “non-reversible covalent manner”.
